Source: US20100222875A1, “METHOD FOR FORMING A POROUS STENT COATING” (Abbott Cardiovascular Systems Inc., priority 2006, published 2010)

Experiment: in vitro drug release from a PBMA-coated stent
Assay type: physicochemical
Conditions: over 24 hours, everolimus in PBMA drug coat, drug:polymer ratio 1 to 1.25, with 40-μg PBMA topcoat (0.3 micron coating thickness) on 18-mm medium stent
Source text: Of import to the present invention is that a polymer's mesh size can be altered by the formation of pores within the polymer itself. One means of accomplishing this is to add such a large concentration of drug to the polymer that the drug phase separates out. Thus, during stent synthesis, drug is released, thereby forming pores within the polymer. However, a topcoat is often added to control drug release and prevent an initial bolus or burst release of drug. Unfortunately, sometimes even the thinnest topcoat that can be applied leads to a drug release that is too slow to be therapeutically effective. One example is everolimus in a PBMA drug coat with a PBMA topcoat. For example, it has been shown that a thin 40-μg PBMA topcoat on an 18-mm medium stent, i.e., a 0.3 micron coating thickness, with a drug:polymer ratio of 1 to 1.25, gave only 7.1% drug release over 24 hours in an in vitro experiment.

drug release: 7.1%
Compound: CO[C@H]1C[C@@H]2CC[C@@H](C)[C@@](O)(O2)C(=O)C(=O)N2CCCC[C@H]2C(=O)O[C@H]([C@H](C)C[C@@H]2CC[C@@H](OCCO)[C@H](OC)C2)CC(=O)[C@H](C)/C=C(\C)[C@@H](O)[C@@H](OC)C(=O)[C@H](C)C[C@H](C)/C=C/C=C/C=C/1C [everolimus]
